In patent US7799775B2, “Pyrimidine derivatives” (ASKA Pharmaceutical Co., Ltd., priority 2004, dated 2010):

Key:
human 5-HT3 receptor = biological target: T1, human 5-HT3 receptor (Homo sapiens, UniProt P46098); assay: Measurement of affinity to human 5-HT3 receptor (in vitro), [3H]BRL-43694 binding; conditions: test compound 100 nmols/L; [3H]BRL-43694 0.5 nmols/L; HEK-293 cell membrane expressing human 5-HT3 receptor; read-out: Percent Inhibition (%) on Each Receptor's Binding at 10^−7M, 5-HT3
T1 construct: purchased BIOLINKS K.K; host or cells: HEK-293 cells (membrane preparation)
T1 sequence (P46098 24-478): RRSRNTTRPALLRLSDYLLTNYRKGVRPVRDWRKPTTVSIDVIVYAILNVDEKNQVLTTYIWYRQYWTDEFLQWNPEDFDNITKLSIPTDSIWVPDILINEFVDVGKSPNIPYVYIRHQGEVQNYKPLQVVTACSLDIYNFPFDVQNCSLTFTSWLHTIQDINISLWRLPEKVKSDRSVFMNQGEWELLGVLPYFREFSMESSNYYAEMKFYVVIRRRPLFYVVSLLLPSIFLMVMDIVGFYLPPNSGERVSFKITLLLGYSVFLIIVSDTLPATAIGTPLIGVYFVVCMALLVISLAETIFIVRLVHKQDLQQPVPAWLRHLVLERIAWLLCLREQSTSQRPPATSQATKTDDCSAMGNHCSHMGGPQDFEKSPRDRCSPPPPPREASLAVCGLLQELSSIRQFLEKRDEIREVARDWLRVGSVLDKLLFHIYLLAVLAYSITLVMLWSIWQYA
Method in brief: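 Membranes from HEK-293 cells expressing the receptor were incubated with 0.5 nmol/L radioligand and compound for 60 min at 25 °C in Tris/MgCl2/EDTA buffer, pH 7.5. Bound radioactivity was collected by filtration and counted. Percent inhibition was corrected for non-specific binding defined with 10 μmol/L tropisetron; compounds were tested at 100 nmol/L.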

5-HT3 receptor = biological target: T2, 5-HT3 receptor (Rattus norvegicus, UniProt P35563); assay: Measurement of 5-HT3 receptor antagonistic action on rats (in vivo): inhibition of serotonin-induced bradycardia (BJ reflex); conditions: anesthetized SD male rats, serotonin 300 μg/kg 10 minutes later
T2 construct: from tissue; host or cells: whole animal (SD male rats), serotonin-induced bradycardia
T2 sequence (P35563 24-483): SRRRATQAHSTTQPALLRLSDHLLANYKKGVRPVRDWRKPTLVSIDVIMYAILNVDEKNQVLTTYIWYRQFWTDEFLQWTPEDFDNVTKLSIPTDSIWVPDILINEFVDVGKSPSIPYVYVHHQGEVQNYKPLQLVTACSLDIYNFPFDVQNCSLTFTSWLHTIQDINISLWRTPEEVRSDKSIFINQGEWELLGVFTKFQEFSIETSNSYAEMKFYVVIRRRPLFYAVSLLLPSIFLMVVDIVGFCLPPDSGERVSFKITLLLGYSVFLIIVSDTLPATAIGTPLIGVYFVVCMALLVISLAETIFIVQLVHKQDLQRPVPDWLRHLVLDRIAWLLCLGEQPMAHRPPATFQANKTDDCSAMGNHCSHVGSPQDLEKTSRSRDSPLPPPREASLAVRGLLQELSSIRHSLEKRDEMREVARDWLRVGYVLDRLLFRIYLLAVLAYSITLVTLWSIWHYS
Experimental: (4) Measurement of 5-HT3 Receptor Antagonistic Action on Rats (in Vivo)
SD male rats (weighing 270-410 g) were anesthetized by peritoneal administration of 1.25 g/kg of urethane (as dissolved in distilled water), and then catheters for measuring blood pressure and heart rate were inserted into their left carotid artery and a catheter for administration of test compound was inserted into their […]. After their blood pressure and heart rate were stabilized, 300 μg/kg of 5-hydroxytryptamine creatinine sulfate (serotonin) was rapidly intravenously administered and thereby induced transient bradycardiac reaction (BC 1) was observed. When the blood pressure and heart rate were re-stabilized after the serotonic administration, the test compounds were intravenously administered to the rats. Ten minutes thereafter, 300 μg/kg of serotonin was once again rapidly intravenously administered and thereby induced transient bradycardiac reaction (BC 2) was observed. Percent inhibition of bradycardia manifestation of each test compound, i.e., BJ reflex inhibition, can be calculated according to the following expression: […]

Structure (SMILES): Cc1cc(N2CCN(CCCCc3nc4c(c(=O)n3C)CCCC4)CC2)nc2ccccc12 [Example 7-6, 3-methyl-2-[4-[4-(4-methylquinolin-2-yl)piperazin-1-yl]butyl]-5,6,7,8-tetrahydro-3H-quinazolin-4-one]
- inhibition at 0.1 µM (human 5-HT3 receptor): 93.8%
- BC Inhibition (%) (5-HT3 receptor; dose 0.01 mg/kg intravenous): 58.5%

Structure (SMILES): c1cc2ccsc2c(N2CCN3CCC[C@H]3C2)n1 [Production Example 103, 7-((8aS)-octahydropyrrolo[1,2-a]pyrazin-2-yl)thieno[2,3-c]pyridine]
- inhibition at 0.1 µM (human 5-HT3 receptor): 99.5%
- BC Inhibition (%) (5-HT3 receptor; dose 3.0 mg/kg intravenous): 57.6%

Structure (SMILES): CN1CCN(c2nccc3ccsc23)CC1 [Production Example 6, 7-(4-methylpiperazin-1-yl)thieno[2,3-c]pyridine]
- inhibition at 0.1 µM (human 5-HT3 receptor): 97.5%

Structure (SMILES): COc1ccc2ccnc(N3CCN4CCC[C@H]4C3)c2c1 [Production Example 72, 1-((8aS)-octahydropyrrolo[1,2-a]pyrazin-2-yl)-7-methoxyisoquinoline]
- inhibition at 0.1 µM (human 5-HT3 receptor): 99.8%
- BC Inhibition (%) (5-HT3 receptor; dose 0.3 mg/kg intravenous): 72.5%

Structure (SMILES): c1cc2ccoc2c(N2CCN3CCC[C@H]3C2)n1 [Production Example 102, 7-((8aS)-octahydropyrrolo[1,2-a]pyrazin-2-yl)furo[2,3-c]-pyridine]
- inhibition at 0.1 µM (human 5-HT3 receptor): 98.9%
- BC Inhibition (%) (5-HT3 receptor; dose 3.0 mg/kg intravenous): 61.5%

Structure (SMILES): c1cc2sccc2c(N2CCN3CCC[C@H]3C2)n1 [Production Example 104, 4-((8aS)-octahydropyrrolo[1,2-a]pyrazin-2-yl)thieno[3,2-c]pyridine]
- inhibition at 0.1 µM (human 5-HT3 receptor): 99.3%
- BC Inhibition (%) (5-HT3 receptor; dose 10.0 mg/kg intravenous): 46.1%

Structure (SMILES): Clc1ccc2ccnc(N3CCNCC3)c2c1 [Production Example 49, 7-chloro-1-piperazin-1-ylisoquinoline]
- inhibition at 0.1 µM (human 5-HT3 receptor): 96.3%
- BC Inhibition (%) (5-HT3 receptor; dose 1.0 mg/kg intravenous): 96.8%

Structure (SMILES): Nn1c(CCCCN2CCN(c3ccc4ccccc4n3)CC2)nc2c(c1=O)CCCC2 [Example 4-1, 3-amino-2-[4-(4-quinolin-2-ylpiperazin-1-yl)butyl]-5,6,7,8-tetrahydro-3H-quinazolin-4-one]
- inhibition at 0.1 µM (human 5-HT3 receptor): 81.2%
- BC Inhibition (%) (5-HT3 receptor; dose 0.1 mg/kg intravenous): 70.4%

Structure (SMILES): Cc1cc(N2CCN(CCCCc3nc4ccccc4c(=O)n3N)CC2)nc2ccccc12 [Example 4-4, 3-amino-2-[4-[4-(4-methylquinolin-2-yl)piperazin-1-yl]butyl]-3H-quinazolin-4-one]
- inhibition at 0.1 µM (human 5-HT3 receptor): 78.6%
- BC Inhibition (%) (5-HT3 receptor; dose 0.1 mg/kg intravenous): 68.7%

Structure (SMILES): Cc1ccc2ccnc(N3CCN(C)CC3)c2c1 [Production Example 47, 7-methyl-1-(4-methylpiperazin-1-yl)isoquinoline]
- inhibition at 0.1 µM (human 5-HT3 receptor): 93.6%
- BC Inhibition (%) (5-HT3 receptor; dose 1.0 mg/kg intravenous): 89.9%

Structure (SMILES): CCn1c(CCCCN2CCN(c3ccc4ccccc4n3)CC2)nc2c(c1=O)CCCC2 [Example 7-2, 3-2-[4-(4-quinolin-2-ylpiperazin-1-yl)butyl]-5,6,7,8-tetrahydro-3H-quinazolin-4-one]
- inhibition at 0.1 µM (human 5-HT3 receptor): 94.5%

Structure (SMILES): c1cc2ccsc2c(N2CCN3CCC[C@@H]3C2)n1 [Production Example 108, 7-((8aR)-octahydropyrrolo[1,2-a]pyrazin-2-yl)thieno[2,3-c]pyridine]
- inhibition at 0.1 µM (human 5-HT3 receptor): 100%

Structure (SMILES): COc1ccc2ccnc(N3CCNC(C)C3)c2c1 (stereo not drawn) [Production Example 38, 7-methoxy-1-(3-methylpiperazin-1-yl)isoquinoline]
- inhibition at 0.1 µM (human 5-HT3 receptor): 93.1%
- BC Inhibition (%) (5-HT3 receptor; dose 1.0 mg/kg intravenous): 82.9%

Structure (SMILES): CCn1c(CCCCN2CCN(c3cc(C)c4ccccc4n3)CC2)nc2c(c1=O)CCCC2 [Example 7-7, 3-ethyl-2-[4-[4-(4-methylquinolin-2-yl)piperazin-1-yl]butyl]-5,6,7,8-tetrahydro-3H-quinazolin-4-one]
- inhibition at 0.1 µM (human 5-HT3 receptor): 95%
- BC Inhibition (%) (5-HT3 receptor; dose 1.0 mg/kg intravenous): 85.4%

Structure (SMILES): CN1CCN(c2nccc3sccc23)CC1 [Production Example 8, 4-(4-methylpiperazin-1-yl)thieno[3,2-c]pyridine]
- inhibition at 0.1 µM (human 5-HT3 receptor): 93.3%

Structure (SMILES): Nn1c(CCCCN2CCN(c3ccc4ccccc4n3)CC2)nc2ccccc2c1=O [Example 4-3, 3-amino-2-[4-(4-quinolin-2-ylpiperazin-1-yl)butyl]-3H-quinazolin-4-one]
- inhibition at 0.1 µM (human 5-HT3 receptor): 83.6%
- BC Inhibition (%) (5-HT3 receptor; dose 1.0 mg/kg intravenous): 90.1%

Structure (SMILES): Nn1c(CCCCN2CCN(c3ccc4ccccc4n3)CC2)nc2cccc(Cl)c2c1=O [Example 4-25, 3-amino-5-chloro-2-[4-(4-quinolin-2-ylpiperazin-1-yl)butyl]-3H-quinazolin-4-one]
- inhibition at 0.1 µM (human 5-HT3 receptor): 43.3%
- BC Inhibition (%) (5-HT3 receptor; dose 0.1 mg/kg intravenous): 49.1%

Structure (SMILES): Clc1ccc2ccnc(N3CCN4CCC[C@H]4C3)c2c1 [Production Example 73, 7-chloro-1-((8aS)-octahydropyrrolo[1,2-a]pyrazin-2-yl)isoquinoline]
- inhibition at 0.1 µM (human 5-HT3 receptor): 99.3%
- BC Inhibition (%) (5-HT3 receptor; dose 0.01 mg/kg intravenous): 52.2%

Structure (SMILES): Cn1c(CCCCN2CCN(c3ccc4ccccc4n3)CC2)nc2c(c1=O)CCCC2 [Example 7-1, 3-methyl-2-[4-(4-quinolin-2-ylpiperazin-1-yl)butyl]-5,6,7,8-tetrahydro-3H-quinazolin-4-one]
- inhibition at 0.1 µM (human 5-HT3 receptor): 94.2%
- BC Inhibition (%) (5-HT3 receptor; dose 0.1 mg/kg intravenous): 90.3%

Structure (SMILES): Nn1c(CCCCN2CCN(c3ccc4ccccc4n3)CC2)nc2ccsc2c1=O [Example 4-18, 3-amino-2-[4-(4-quinolin-2-ylpiperazin-1-yl)butyl]-3H-thieno[3,2-d]-pyrimidin-4-one]
- inhibition at 0.1 µM (human 5-HT3 receptor): 50.9%
- BC Inhibition (%) (5-HT3 receptor; dose 0.1 mg/kg intravenous): 35.6%

Structure (SMILES): Cc1cc2c(N3CCN4CCC[C@H]4C3)nccc2s1 [Production Example 107, 4-((8aS)-octahydropyrrolo[1,2-a]pyrazin-2-yl)-2-methylthieno[3,2-c]-pyridine]
- inhibition at 0.1 µM (human 5-HT3 receptor): 95.9%

Structure (SMILES): Cn1c(CCCCN2CCN(c3ccc4ccccc4n3)CC2)nc2ccccc2c1=O [Example 7-20, 3-methyl-2-[4-(4-quinolin-2-ylpiperazin-1-yl)butyl]-3H-quinazolin-4-one]
- inhibition at 0.1 µM (human 5-HT3 receptor): 92.9%
- BC Inhibition (%) (5-HT3 receptor; dose 0.01 mg/kg intravenous): 64.7%
